Measured values taken from US20100041089A1, “IMPROVED METHOD FOR DETECTING CHEMICAL […]” (priority 2006, published 2010).

Test system: yeast genes (expressed mRNA)
Assay: DNA chip measurement of expressed mRNA of yeast genes after culture with a toxic chemical substance
Type: cell-based, Saccharomyces cerevisiae S288C
Summary of the method: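 Each expression value is the mRNA level in chemical-treated yeast divided by that in untreated yeast, from Cy3/Cy5 fluorescence on a whole-genome chip. Log-phase S288C cells in YPD at 25° C had received a sublethal, growth-inhibiting dose for two hours. Intensity denotes control expression relative to the all-gene mean.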

## CCCCC[C@H](O)CC(=O)CCc1ccc(O)c(OC)c1 [(13), Gingerol]
Yeast gene YKL065C, cultured two hours with substance
  The level of expressed mRNA in the presence of chemical substance/The level of expressed mRNA in the absence of chemical substance: 3.0
Yeast gene YKL097C, cultured two hours with the chemical substance
  level of expressed mRNA in the presence of chemical substance / level in the absence of chemical substance: 0.9
Yeast gene YKL100C, cultured two hours with the chemical substance
  level of expressed mRNA in the presence of chemical substance / level in the absence of chemical substance: 1.3
Yeast gene YKL153W, cultured two hours with substance
  The level of expressed mRNA in the presence of chemical substance/The level of expressed mRNA in the absence of chemical substance: 2.4
Yeast gene YKL194C, mitochondria-located protein gene, cultured two hours with substance
  The level of expressed mRNA in the presence of chemical substance/The level of expressed mRNA in the absence of chemical substance: 1.1
Yeast gene YKL218C
  The level of expressed mRNA in the presence of chemical substance/The level of expressed mRNA in the absence of chemical substance: 5.1
Yeast gene YKR018C, cultured two hours with substance
  The level of expressed mRNA in the presence of chemical substance/The level of expressed mRNA in the absence of chemical substance: 3.0
Yeast gene YKR040C, cultured two hours with the chemical substance
  level of expressed mRNA in the presence of chemical substance / level in the absence of chemical substance: 0.6
Yeast gene YKR046C, cultured two hours with substance
  The level of expressed mRNA in the presence of chemical substance/The level of expressed mRNA in the absence of chemical substance: 2.8
Yeast gene YKR075C, cultured two hours with substance
  The level of expressed mRNA in the presence of chemical substance/The level of expressed mRNA in the absence of chemical substance: 3.8
Yeast gene YLL041C, mitochondria-located protein gene, cultured two hours with substance
  The level of expressed mRNA in the presence of chemical substance/The level of expressed mRNA in the absence of chemical substance: 1.0
Yeast gene YLR041W, cultured two hours with the chemical substance
  The level of expressed mRNA in the presence of chemical substance/The level of expressed mRNA in the absence of chemical substance: 0.3
Yeast gene YLR217W, cultured two hours with substance
  The level of expressed mRNA in the presence of chemical substance/The level of expressed mRNA in the absence of chemical substance: 3.8
Yeast gene YLR226W, cultured two hours with the chemical substance
  level of expressed mRNA in the presence of chemical substance / level in the absence of chemical substance: 0.7
Yeast gene YLR338W, cultured two hours with the chemical substance
  level of expressed mRNA in the presence of chemical substance / level in the absence of chemical substance: 1.2
Yeast gene YLR340W
  The level of expressed mRNA in the presence of chemical substance/The level of expressed mRNA in the absence of chemical substance: 0.1
Yeast gene YLR350W, cultured two hours with substance
  The level of expressed mRNA in the presence of chemical substance/The level of expressed mRNA in the absence of chemical substance: 4.5
Yeast gene YLR387C, cultured two hours with substance
  The level of expressed mRNA in the presence of chemical substance/The level of expressed mRNA in the absence of chemical substance: 3.6
Yeast gene YLR388W
  The level of expressed mRNA in the presence of chemical substance/The level of expressed mRNA in the absence of chemical substance: 0.1
Yeast gene YLR392C, cultured two hours with the chemical substance
  level of expressed mRNA in the presence of chemical substance / level in the absence of chemical substance: 1.4
Yeast gene YLR415C, cultured two hours with the chemical substance
  level of expressed mRNA in the presence of chemical substance / level in the absence of chemical substance: 1.0
Yeast gene YLR427W, cultured two hours with the chemical substance
  level of expressed mRNA in the presence of chemical substance / level in the absence of chemical substance: 2.5
Yeast gene YML013W, cultured two hours with the chemical substance
  level of expressed mRNA in the presence of chemical substance / level in the absence of chemical substance: 1.2
Yeast gene YML029W, cultured two hours with the chemical substance
  level of expressed mRNA in the presence of chemical substance / level in the absence of chemical substance: 2.0
Yeast gene YML041C, cultured two hours with the chemical substance
  level of expressed mRNA in the presence of chemical substance / level in the absence of chemical substance: 1.2
Yeast gene YML054C, cultured for two hours with substance
  The level of expressed mRNA in the presence of chemical substance/The level of expressed mRNA in the absence of chemical substance: 2.8
Yeast gene YML079W, cultured two hours with the chemical substance
  level of expressed mRNA in the presence of chemical substance / level in the absence of chemical substance: 1.6
Yeast gene YML100W, cultured for two hours with substance
  The level of expressed mRNA in the presence of chemical substance/The level of expressed mRNA in the absence of chemical substance: 3.8
Yeast gene YMR068W, cultured two hours with the chemical substance
  level of expressed mRNA in the presence of chemical substance / level in the absence of chemical substance: 1.4
Yeast gene YMR071C, cultured two hours with the chemical substance
  level of expressed mRNA in the presence of chemical substance / level in the absence of chemical substance: 1.3
Yeast gene YMR095C, cultured two hours with substance
  The level of expressed mRNA in the presence of chemical substance/The level of expressed mRNA in the absence of chemical substance: 3.4
Yeast gene YMR160W, cultured two hours with the chemical substance
  level of expressed mRNA in the presence of chemical substance / level in the absence of chemical substance: 1.6
Yeast gene YMR191W, cultured two hours with substance
  The level of expressed mRNA in the presence of chemical substance/The level of expressed mRNA in the absence of chemical substance: 3.4
Yeast gene YMR203W, mitochondria-located protein gene, cultured two hours with substance
  The level of expressed mRNA in the presence of chemical substance/The level of expressed mRNA in the absence of chemical substance: 1.1
Yeast gene YMR210W, cultured two hours with the chemical substance, DNA chip fluorescence ratio
  The level of expressed mRNA in the presence of chemical substance/The level of expressed mRNA in the absence of chemical substance: 1.0
Yeast gene YNL026W, cultured two hours with the chemical substance
  level of expressed mRNA in the presence of chemical substance / level in the absence of chemical substance: 1.7
Yeast gene YNL058C, cultured two hours with the chemical substance
  level of expressed mRNA in the presence of chemical substance / level in the absence of chemical substance: 0.6
Yeast gene YNL063W, cultured two hours with the chemical substance
  level of expressed mRNA in the presence of chemical substance / level in the absence of chemical substance: 1.5
Yeast gene YNL069C
  The level of expressed mRNA in the presence of chemical substance/The level of expressed mRNA in the absence of chemical substance: 0.1
Yeast gene YNL115C, cultured two hours with substance
  The level of expressed mRNA in the presence of chemical substance/The level of expressed mRNA in the absence of chemical substance: 2.5
Yeast gene YNL155W, cultured two hours with substance
  The level of expressed mRNA in the presence of chemical substance/The level of expressed mRNA in the absence of chemical substance: 4.4
Yeast gene YNL176C, cultured two hours with the chemical substance
  level of expressed mRNA in the presence of chemical substance / level in the absence of chemical substance: 0.6
Yeast gene YNL194C, cultured two hours with the chemical substance
  level of expressed mRNA in the presence of chemical substance / level in the absence of chemical substance: 1.5
Yeast gene YNL200C, cultured two hours with the chemical substance
  level of expressed mRNA in the presence of chemical substance / level in the absence of chemical substance: 1.1
Yeast gene YNL208W, cultured two hours with substance
  The level of expressed mRNA in the presence of chemical substance/The level of expressed mRNA in the absence of chemical substance: 1.7
Yeast gene YNL234W, cultured two hours with substance
  The level of expressed mRNA in the presence of chemical substance/The level of expressed mRNA in the absence of chemical substance: 2.5
Yeast gene YNL241C, cultured for two hours with substance
  The level of expressed mRNA in the presence of chemical substance/The level of expressed mRNA in the absence of chemical substance: 4.9
Yeast gene YNL253W, cultured two hours with the chemical substance
  level of expressed mRNA in the presence of chemical substance / level in the absence of chemical substance: 1.1
Yeast gene YNL276C, cultured two hours with the chemical substance
  level of expressed mRNA in the presence of chemical substance / level in the absence of chemical substance: 1.5
Yeast gene YNR051C, cultured two hours with the chemical substance
  level of expressed mRNA in the presence of chemical substance / level in the absence of chemical substance: 2.1
Yeast gene YOL026C, cultured two hours with the chemical substance
  level of expressed mRNA in the presence of chemical substance / level in the absence of chemical substance: 1.2
Yeast gene YOL030W, cultured two hours with the chemical substance
  The level of expressed mRNA in the presence of chemical substance/The level of expressed mRNA in the absence of chemical substance: 1.7
Yeast gene YOL036W, cultured two hours with substance
  The level of expressed mRNA in the presence of chemical substance/The level of expressed mRNA in the absence of chemical substance: 2.5
Yeast gene YOL039W
  The level of expressed mRNA in the presence of chemical substance/The level of expressed mRNA in the absence of chemical substance: 0.1
Yeast gene YOL084W, cultured two hours with substance
  The level of expressed mRNA in the presence of chemical substance/The level of expressed mRNA in the absence of chemical substance: 6.4
Yeast gene YOL120C
  The level of expressed mRNA in the presence of chemical substance/The level of expressed mRNA in the absence of chemical substance: 0.1
Yeast gene YOR022C, cultured two hours with the chemical substance
  level of expressed mRNA in the presence of chemical substance / level in the absence of chemical substance: 1.7
Yeast gene YOR087W, cultured two hours with the chemical substance
  level of expressed mRNA in the presence of chemical substance / level in the absence of chemical substance: 1.2
Yeast gene YOR138C, cultured two hours with the chemical substance
  level of expressed mRNA in the presence of chemical substance / level in the absence of chemical substance: 1.8
Yeast gene YOR152C, cultured two hours with substance
  The level of expressed mRNA in the presence of chemical substance/The level of expressed mRNA in the absence of chemical substance: 7.4
Yeast gene YOR153W
  The level of expressed mRNA in the presence of chemical substance/The level of expressed mRNA in the absence of chemical substance: 11.8
Yeast gene YOR173W, cultured two hours with substance
  The level of expressed mRNA in the presence of chemical substance/The level of expressed mRNA in the absence of chemical substance: 3.8
Yeast gene YOR187W, mitochondria-located protein gene, cultured two hours with substance
  The level of expressed mRNA in the presence of chemical substance/The level of expressed mRNA in the absence of chemical substance: 0.7
Yeast gene YOR253W, cultured two hours with the chemical substance
  level of expressed mRNA in the presence of chemical substance / level in the absence of chemical substance: 0.5
Yeast gene YOR267C, cultured two hours with the chemical substance
  level of expressed mRNA in the presence of chemical substance / level in the absence of chemical substance: 1.4
Yeast gene YOR325W, cultured two hours with the chemical substance
  level of expressed mRNA in the presence of chemical substance / level in the absence of chemical substance: 0.6
Yeast gene YOR382W, cultured two hours with substance
  The level of expressed mRNA in the presence of chemical substance/The level of expressed mRNA in the absence of chemical substance: 1.7
Yeast gene YOR385W, cultured two hours with the substance
  The level of expressed mRNA in the presence of chemical substance/The level of expressed mRNA in the absence of chemical substance: 2.8
Yeast gene YPL005W, cultured two hours with the chemical substance
  level of expressed mRNA in the presence of chemical substance / level in the absence of chemical substance: 1.2
Yeast gene YPL087W, cultured two hours with substance
  The level of expressed mRNA in the presence of chemical substance/The level of expressed mRNA in the absence of chemical substance: 4.4
Yeast gene YPL150W, cultured two hours with the chemical substance
  level of expressed mRNA in the presence of chemical substance / level in the absence of chemical substance: 2.1
Yeast gene YPL152W, cultured two hours with the chemical substance
  level of expressed mRNA in the presence of chemical substance / level in the absence of chemical substance: 1.4
Yeast gene YPL168W, cultured two hours with the chemical substance
  level of expressed mRNA in the presence of chemical substance / level in the absence of chemical substance: 1.0
Yeast gene YPL180W, cultured two hours with the chemical substance
  level of expressed mRNA in the presence of chemical substance / level in the absence of chemical substance: 1.5
Yeast gene YPL188W, cultured two hours with the chemical substance
  level of expressed mRNA in the presence of chemical substance / level in the absence of chemical substance: 0.9
Yeast gene YPL221W, cultured two hours with the chemical substance
  level of expressed mRNA in the presence of chemical substance / level in the absence of chemical substance: 1.0
Yeast gene YPL222W, cultured two hours with substance
  The level of expressed mRNA in the presence of chemical substance/The level of expressed mRNA in the absence of chemical substance: 3.0
Yeast gene YPL225W, cultured two hours with the chemical substance
  level of expressed mRNA in the presence of chemical substance / level in the absence of chemical substance: 0.8
Yeast gene YPR037C, mitochondria-located protein gene, cultured two hours with substance
  The level of expressed mRNA in the presence of chemical substance/The level of expressed mRNA in the absence of chemical substance: 1.0
Yeast gene YPR049C, cultured two hours with the chemical substance
  level of expressed mRNA in the presence of chemical substance / level in the absence of chemical substance: 1.6
Yeast gene YPR134W, mitochondria-located protein gene, cultured two hours with substance
  The level of expressed mRNA in the presence of chemical substance/The level of expressed mRNA in the absence of chemical substance: 1.1
Yeast gene YPR146C, cultured two hours with the chemical substance
  level of expressed mRNA in the presence of chemical substance / level in the absence of chemical substance: 1.3
Yeast gene YPR148C, cultured two hours with the chemical substance
  level of expressed mRNA in the presence of chemical substance / level in the absence of chemical substance: 1.2
Yeast gene YPR172W, cultured two hours with the chemical substance
  level of expressed mRNA in the presence of chemical substance / level in the absence of chemical substance: 1.3
